Reference: publication PMC6321168, “Comparative Study on Excretive Characterization of Main Components in Herb Pair Notoginseng-Safflower and Single Herbs by LC–MS/MS” (Pharmaceutics, 2018)

Assay: Fecal excretion study in rats after oral NS, SF or CNS (LC–MS/MS)
Type: in vivo
Conditions: rat feces
Experimental: The animal room was set at constant temperature of 20 ± 2 °C with humidity of 50 ± 20% and 12/12 h light/dark cycle.
Eighteen male rats were fasted for 12 h before starting the experiment. The rats were divided into three groups at random (n = 6) and received NS (60 mg/kg), SF (50 mg/kg), and NS (60 mg/kg) + SF (50 mg/kg), respectively, by oral gavage. The rats were placed in separate metabolic cages. The urine samples were collected at 0–2, 2–4, 4–6, 6–8, 8–12, 12–24, 24–36, 36–48, 48–72, 72–96, and 96–120 h. The feces samples were collected at 0–4, 4–8, 8–12, 12–24, 24–36, 36–48, 48–72, 72–96, and 96–120 h. The urine volume was recorded and the dry feces were measured for each collection period. Samples were stored at −80 °C until analysis.
Feces samples were homogenized in ultrapure water (1 g/15 mL), soaked for 30 min, ultrasonically extracted for 30 min and centrifuged at 9000 rpm for 8 min. An aliquot of 200 μL feces water extraction solution was mixed with 10 μL of IS and then extracted three times with water-saturated n-BuOH (150 μL). The upper organic phase was combined and evaporated to dryness using a ZLS-2 vacuum centrifugal concentrator. The residue was treated as the urine sample and a 1-μL aliquot was injected for LC–MS analysis.
Ultra fast liquid chromatography (UFLC) analysis was performed using a Shimadzu UFLC system (DGU-20A3R Degasser; LC-20AD pump; SIL-20AXR Autosampler; CTO-20AC Column Oven) (Nakagyo-Ku, Koyoto, Japan). […] Because of the different endogenous substances in the urine and feces samples, different elution gradients were used to alleviate the matrix effects for the analytes.
The mass spectrometric detection was performed on an ABSciex 4500 Qtrap mass spectrometer (ABSciex, Foster City, CA, USA) equipped with a negative electrospray ionization (ESI) interface using multiple reaction monitoring (MRM). The MS parameters were optimized under the selected ion monitoring conditions as follows: curtain gas, 35 psi; ionspray voltage, 4500 V; turbo gas temperature, 450 °C; GS1, 45 psi; GS2, 45 psi. All data were acquired and analyzed by Analyst software (Versions 1.6.2) from ABSciex.
The accumulative excretion percentage was calculated for each analyte as follows. Excretion at time (t) = [concentration of the analyte (ng/mL) at t] × total urine (or feces) volume (mL) at t. The cumulative excretion up to time t (mg) was expressed as a percent (%) cumulative excretion by dividing by the total amount of the analyte ingested (mg): % Cumulative Excretion = 100 × (Σt excretiont) total ingested.

## CC(C)=CCC[C@](C)(O[C@@H]1O[C@H](CO[C@@H]2O[C@H](CO)[C@@H](O)[C@H](O)[C@H]2O)[C@@H](O)[C@H](O)[C@H]1O)[C@H]1CC[C@]2(C)[C@@H]1[C@H](O)C[C@@H]1[C@@]3(C)CC[C@H](O[C@@H]4O[C@H](CO)[C@@H](O)[C@H](O)[C@H]4O[C@@H]4O[C@H](CO)[C@@H](O)[C@H](O)[C@H]4O)C(C)(C)[C@@H]3CC[C@]12C [ginsenoside Rb1]
male, Sprague Dawley, oral CNS 110 mg/kg, 4 h
  concentration at 4 h: 555 ± 763 ng/mL
male, Sprague Dawley, oral CNS 110 mg/kg, 8 h
  concentration at 8 h: 1080 ± 431 ng/mL
male, Sprague Dawley, oral CNS 110 mg/kg, 12 h
  concentration at 12 h: 899 ± 96 ng/mL
male, Sprague Dawley, oral CNS 110 mg/kg, 24 h
  concentration at 24 h: 802 ± 25 ng/mL
male, Sprague Dawley, oral CNS 110 mg/kg, 36 h
  concentration at 36 h: 548 ± 36 ng/mL
male, Sprague Dawley, oral CNS 110 mg/kg, 48 h
  concentration at 48 h: 552 ± 30 ng/mL
male, Sprague Dawley, oral CNS 110 mg/kg, 72 h
  concentration at 72 h: 455 ± 377 ng/mL
male, Sprague Dawley, oral CNS 110 mg/kg, 96 h
  concentration at 96 h: 21 ± 20 ng/mL
male, Sprague Dawley, oral NS 60 mg/kg, 4 h
  concentration at 4 h: 1080 ± 156 ng/mL
male, Sprague Dawley, oral NS 60 mg/kg, 8 h
  concentration at 8 h: 767 ± 29 ng/mL
male, Sprague Dawley, oral NS 60 mg/kg, 12 h
  concentration at 12 h: 2060 ± 137 ng/mL
male, Sprague Dawley, oral NS 60 mg/kg, 24 h
  concentration at 24 h: 2180 ± 90 ng/mL
male, Sprague Dawley, oral NS 60 mg/kg, 36 h
  concentration at 36 h: 920 ± 48 ng/mL
male, Sprague Dawley, oral NS 60 mg/kg, 48 h
  concentration at 48 h: 1020 ± 52 ng/mL
male, Sprague Dawley, oral NS 60 mg/kg, 72 h
  concentration at 72 h: 120 ± 9 ng/mL
male, Sprague Dawley, oral NS 60 mg/kg, 96 h
  concentration at 96 h: 19 ± 4 ng/mL
male, Sprague Dawley, oral NS 60 mg/kg, 120 h
  concentration at 120 h: 17 ± 3 ng/mL
Oral CNS 110 mg/kg, 4 h
  Accumulative excretion amount: 7.072 ± 10.199 µg
  Accumulative excretion percentage: 0.192±0.275%
  Excretion amount: 7.072 ± 10.199 µg
Oral CNS 110 mg/kg, 8 h
  Accumulative excretion amount: 22.570 ± 15.790 µg
  Accumulative excretion percentage: 0.607±0.426%
  Excretion amount: 15.499 ± 6.228 µg
Oral CNS 110 mg/kg, 12 h
  Accumulative excretion amount: 36.062 ± 14.935 µg
  Accumulative excretion percentage: 0.968±0.409%
  Excretion amount: 13.492 ± 4.335 µg
Oral CNS 110 mg/kg, 24 h
  Accumulative excretion amount: 48.081 ± 16.475 µg
  Accumulative excretion percentage: 1.282±0.443%
  Excretion amount: 12.018 ± 3.497 µg
Oral CNS 110 mg/kg, 36 h
  Accumulative excretion amount: 56.222 ± 17.772 µg
  Accumulative excretion percentage: 1.501±0.476%
  Excretion amount: 8.141 ± 2.259 µg
Oral CNS 110 mg/kg, 48 h
  Accumulative excretion amount: 64.538 ± 19.434 µg
  Accumulative excretion percentage: 1.723±0.522%
  Excretion amount: 8.316 ± 2.614 µg
Oral CNS 110 mg/kg, 72 h
  Accumulative excretion amount: 71.863 ± 19.005 µg
  Accumulative excretion percentage: 1.923±0.515%
  Excretion amount: 7.325 ± 6.432 µg
Oral CNS 110 mg/kg, 96 h
  Accumulative excretion amount: 72.213 ± 19.048 µg
  Accumulative excretion percentage: 1.931±0.512%
  Excretion amount: 0.350 ± 0.350 µg
Oral CNS 110 mg/kg, 120 h
  Accumulative excretion amount: 72.213 ± 19.048 µg
  Accumulative excretion percentage: 1.931±0.513%
Oral NS 60 mg/kg, 4 h
  Accumulative excretion amount: 15.357 ± 4.697 µg
  Accumulative excretion percentage: 0.361±0.113%
  Excretion amount: 15.357 ± 4.697 µg
Oral NS 60 mg/kg, 8 h
  Accumulative excretion amount: 26.423 ± 8.057 µg
  Accumulative excretion percentage: 0.624±0.192%
  Excretion amount: 11.066 ± 3.551 µg
Oral NS 60 mg/kg, 12 h
  Accumulative excretion amount: 56.148 ± 17.467 µg
  Accumulative excretion percentage: 1.312±0.411%
  Excretion amount: 29.724 ± 9.595 µg
Oral NS 60 mg/kg, 24 h
  Accumulative excretion amount: 87.371 ± 26.505 µg
  Accumulative excretion percentage: 2.043±0.622%
  Excretion amount: 31.223 ± 9.132 µg
Oral NS 60 mg/kg, 36 h
  Accumulative excretion amount: 100.721 ± 31.049 µg
  Accumulative excretion percentage: 2.354±0.725%
  Excretion amount: 13.350 ± 4.715 µg
Oral NS 60 mg/kg, 48 h
  Accumulative excretion amount: 115.527 ± 36.105 µg
  Excretion amount: 14.806 ± 5.076 µg
Oral NS 60 mg/kg, 72 h
  Accumulative excretion amount: 117.237 ± 36.600 µg
  Accumulative excretion percentage: 2.731±0.854%
  Excretion amount: 1.710 ± 0.525 µg
Oral NS 60 mg/kg, 96 h
  Accumulative excretion amount: 117.502 ± 36.686 µg
  Accumulative excretion percentage: 2.741±0.854%
  Excretion amount: 0.264 ± 0.103 µg
Oral NS 60 mg/kg, 120 h
  Accumulative excretion amount: 117.753 ± 36.774 µg
  Accumulative excretion percentage: 2.745±0.858%
  Excretion amount: 0.252 ± 0.100 µg
